Experimental findings from patent US7932261B2, “Macrocycle derivatives useful as inhibitors of β-secretase (BACE)” (Janssen Pharmaceutica NV, priority 2006, dated 2011) are described below.

Like-named read-outs stand apart in the source and are kept apart here.

Experiment [1] concerns the target T1, β-secretase (BACE) (Homo sapiens, UniProt P56817).
T1 construct: purchased Panvera
Kind of experiment: in vitro BACE Assay, Ki (Example 14). The format is biochemical. As to the method:
(§1) The following assay buffers were prepared and used in this assay: (1) enzyme assay buffer (0.05 M sodium acetate, pH5, 0.1% PEG8000 (w/v)), (2) substrate assay buffer (0.05 M sodium acetate, pH5), and (3) compound vehicle (30% DMSO in 50 mM HEPES, pH 7.4).
The FS1-substrate stock solution was prepared in DMSO as a 10 mg/mL solution. The FS1-substrate working solution was prepared by diluting the 10 mg/mL stock solution with substrate assay buffer to a final concentration of 300 μg/mL. The β-secretase (BACE) working solution was prepared by diluting a 0.83 mg/mL BACE stock solution with enzyme assay buffer to a final concentration of 4 μg/mL.
Test compounds were dissolved in DMSO at 10 mM.
The procedure for this assay was as follows: 15 μL of BACE working solution was pipetted into each well of a 96-well plate. To each well was then pipetted 2 μL of test compound at the selected concentration. Test compound and BACE were then mixed with a pipettor and incubated for 20 min at room temperature. To each well was then added 10 μL of the FS1 substrate working solution.
The procedure for the positive control was as follows: 15 μL of BACE working solution was pipetted into each well to be used as a positive control. To each well was then pipetted 2 μL of vehicle. Vehicle and BACE were then mixed with a pipettor and incubated for 20 min at room temperature. To each well was then added 10 μL of the FS1 substrate working solution.
For test compounds, Ki inhibition was determined as follows: For each compound concentration and positive control, rate of cleavage of substrate (Vi, where i=compound concentration in μM) was determined as Δ Fluorescence/Δ time (min). Cleavage rates (Vi) were plotted as a function of inhibitor concentration in μM [I]. The Ki was then determined by fitting the following equation to the graph of [I] vs. Vi Y=aVmax/(50+24*(1+X/Ki)),

Experiment [2] has as its target T1, β-secretase (BACE). In words: in vitro BACE FS1 % Inhibition Assay (Example 13). In kind it is biochemical. Particulars: FS1 substrate, pH 5; for inhibition at 0.3 µM: read-out: % Inhibition (Example 13) @ 0.3 μM; for inhibition at 1 µM: read-out: % Inhibition (Example 13) @ 1 μM; for inhibition at 3 µM: read-out: % Inhibition (Example 13) @ 3 μM. As to the method: as §1
The FS1-substrate stock solution was prepared in DMSO as a 10 mg/mL solution. The FS1-substrate working solution was prepared by diluting the 10 mg/mL stock solution with substrate assay buffer to a final concentration of 300 μg/mL. The α-secretase (BACE) working solution was prepared by diluting a 0.83 mg/mL BACE stock solution with enzyme assay buffer to a final concentration of 4 μg/mL.
Test compounds were dissolved in DMSO to 10 mM.
The screening procedure for this assay was as follows: 15 μL of BACE working solution was pipetted into each well of a 96-well plate. To each well was then pipetted 2 μL of test compound at the selected concentration. Test compound and BACE were then mixed with a pipettor and incubated for 20 min at room temperature. To each well was then added 10 µL of the FS1 substrate working solution. The plates were then incubated for 1 hour at room temperature.
The procedure for the blank (negative control) was as follows. 15 μL of assay buffer was pipetted into each well to be used as a blank control. To each well was then added 2 μL of vehicle and 10 μL of FS1-substrate working solution. The plates were then incubated for 1 hour at room temperature.
The procedure for the positive control was as follows: 15 μL of BACE working solution was pipetted into each well to be used as a positive control. To each well was then pipetted 2 μL of vehicle. Vehicle and BACE were then mixed with a pipettor and incubated for 20 min at room temperature. To each well was then added 10 μL of the FS1 substrate working solution. The plates were then incubated for 1 hour at room temperature.
For test compounds, % inhibition was determined at each concentration as follows: […]

T1 sequence (P56817 46-501): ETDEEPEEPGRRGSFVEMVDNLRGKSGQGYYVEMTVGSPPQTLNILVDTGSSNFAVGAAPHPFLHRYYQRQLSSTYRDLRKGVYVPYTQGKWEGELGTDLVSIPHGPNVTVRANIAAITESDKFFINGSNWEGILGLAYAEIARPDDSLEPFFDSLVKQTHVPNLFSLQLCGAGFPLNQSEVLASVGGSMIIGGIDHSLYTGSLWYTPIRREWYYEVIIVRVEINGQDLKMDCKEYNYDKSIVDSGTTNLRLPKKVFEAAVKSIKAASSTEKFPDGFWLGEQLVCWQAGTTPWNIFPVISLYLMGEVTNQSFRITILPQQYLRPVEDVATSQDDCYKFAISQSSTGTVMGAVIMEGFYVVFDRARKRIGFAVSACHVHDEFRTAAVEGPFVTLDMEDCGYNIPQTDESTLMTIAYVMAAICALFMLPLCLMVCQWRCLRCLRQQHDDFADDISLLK

In the case of `NC1=Nc2ccc3cc2CN1[C@@H](C1CCCCC1)CCCN(C1CCCCC1)CCCc1cccc(c1)O3` [Compound 19], in experiment [1], the affinity, expressed as Ki, was 0.4 µM. Moreover, in experiment [2] (0.3 μM compound), the inhibition (as a rule, the drop in the measured response relative to a control, in per cent) at 0.3 µM was found to be 35%. The inhibition at 1 µM in experiment [2] (1 μM compound) stood at 55%. Besides, in experiment [2] (3 μM compound), the inhibition at 3 µM was determined as 93%.
Turning to `NC1=Nc2ccc3cc2CN1[C@H](C1CCOCC1)CCC(=O)NCCc1cccc(c1)O3` [Compound 21], the Ki (as a rule, the equilibrium dissociation constant of an inhibitor or competing ligand from its target) in experiment [1] (read-out: (Example 14) Ki, FS1 substrate 50 μM, Km 24 μM, pH 5) is 0.1 µM. Moreover, the “% Inhibition (Example 13) @ 0.3 μM” value in experiment [2] (0.3 μM compound) amounted to 54%. The “% Inhibition (Example 13) @ 1 μM” value in experiment [2] (1 μM compound) is listed as 88%. Besides, in experiment [2] (3 μM compound), the “% Inhibition (Example 13) @ 3 μM” value stood at 110%.
On to `NC1=Nc2cc(F)c3cc2CN1[C@H](C1CCCCC1)CCC(=O)N(C1CCCCC1)CCc1cccc(c1)O3` [Compound 17], for which the Ki in experiment [1] is 0.0076 µM. In addition, the inhibition at 0.3 µM in experiment [2] (0.3 μM compound) is 139%. Moreover, in experiment [2] (1 μM compound), the inhibition at 1 µM worked out at 145%. The inhibition at 3 µM in experiment [2] (3 μM compound) was 151%.
Take `CC(C)[C@@H]1CCC(=O)N([C@H]2CC[C@H](C(=O)O)CC2)CCc2cccc(c2)Oc2ccc3c(c2)CN1C(N)=N3` [Compound 24]: the affinity in experiment [1], expressed as Ki, was 0.42 µM. The inhibition at 0.3 µM in experiment [2] (0.3 μM compound) turned out to be 27%. The inhibition at 1 µM in experiment [2] (1 μM compound) worked out at 43%. Moreover, in experiment [2] (3 μM compound), the inhibition at 3 µM came out at 77%.
Taken in the same sequence, the figures for `NC1=Nc2ccc3cc2CN1CCCCC(=O)N(C1CCCCC1)CCCc1cccc(c1)O3` [Compound 4] were 0.044 µM, 100%, 115% and 120%.
The compound `CCOC(=O)C1CCC(N2CCc3cccc(c3)Oc3ccc4c(c3)CN(C(N)=N4)C(C(C)C)CCC2=O)CC1` (stereo not drawn) [Compound 22] registered a Ki in experiment [1] of 0.75 µM. Also, the inhibition at 0.3 µM in experiment [2] (0.3 μM compound) was 25%. Moreover, the inhibition at 1 µM in experiment [2] (1 μM compound) stood at 48%. In experiment [2] (3 μM compound), the inhibition at 3 µM is 83%.
